“And” between values parts separate entries of the source, which are not always exact repeats. Equal values may be shown once. Inconclusive results and toxic doses are left out.

The test system of this experiment is P388 leukemia ip, CD2F1 mice, survival T/C. Put plainly: NCI In Vivo Anticancer Drug Screen. Data for tumor model P388 Leukemia (intraperitoneal) in CD2F1 (CDF1) mice. The following applies: endpoint: median survival time, higher = longer survival. The method in brief:
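Mice carrying the transplanted tumor received test compound or vehicle. Survival was recorded in each group, and the value is the treated-group measurement divided by that of the vehicle-treated control group.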

Where [1] appears, read: dose: 50.0 mg/kg/injection, schedule: Q01DX005 (ip), vehicle: saline with Tween-80.
Where [2] appears, read: dose: 100.0 mg/kg/injection, schedule: Q01DX005 (ip), vehicle: saline with Tween-80.
Setting [3] is: dose: 200.0 mg/kg/injection, schedule: Q01DX005 (ip), vehicle: saline with Tween-80.
[4] abbreviates: dose: 12.5 mg/kg/injection, schedule: Q01DX005 (ip), vehicle: Klucel (hydroxypropylcellulose) (HPC).
The mark [5] stands for this setting: dose: 50.0 mg/kg/injection, schedule: Q01DX005 (ip), vehicle: Klucel (hydroxypropylcellulose) (HPC).
Where [6] appears, read: dose: 50.0 mg/kg/injection, schedule: Q01DX009 (ip), vehicle: saline with Tween-80.
Setting [7] is: dose: 100.0 mg/kg/injection, schedule: Q01DX009 (ip), vehicle: saline with Tween-80.
[8] abbreviates: dose: 200.0 mg/kg/injection, schedule: Q01DX009 (ip), vehicle: saline with Tween-80.
Where [9] appears, read: dose: 100.0 mg/kg/injection, schedule: Q01DX005 (ip), vehicle: Klucel (hydroxypropylcellulose) (HPC).
[10] abbreviates: dose: 200.0 mg/kg/injection, schedule: Q01DX005 (ip), vehicle: Klucel (hydroxypropylcellulose) (HPC).

Regarding `CC(=O)OCC(=O)[C@@]12OC(C)(C)O[C@@H]1C[C@H]1[C@@H]3CC(C=O)=C4C=C(OCCCl)CC[C@]4(C)[C@@]3(F)[C@@H](O)C[C@@]12C`, the T/C (dose: 0.39 mg/kg/injection, schedule: Q01DX009 (ip), vehicle: Klucel (hydroxypropylcellulose) (HPC)) is 106 % of control; the T/C (dose: 0.78 mg/kg/injection, schedule: Q01DX009 (ip), vehicle: Klucel (hydroxypropylcellulose) (HPC)) is 113 % of control; the T/C (dose: 1.56 mg/kg/injection, schedule: Q01DX009 (ip), vehicle: Klucel (hydroxypropylcellulose) (HPC)) was 115 % of control.
With `O=C1CS[C@@H]2C(=O)CCCC2C1` (stereo partly specified), the T/C runs as follows: under setting [1], 98 % of control; under setting [2], 98 % of control; under setting [3], 92 % of control.
Take `CCN=P1(N(C(C)C)C(C)C)N(CC)N=NN1C(C)(C)C` (stereo unspecified): the T/C (dose: 1.56 mg/kg/injection, schedule: Q01DX005 (ip), vehicle: Klucel (hydroxypropylcellulose) (HPC)) is 102 % of control; the T/C (dose: 3.12 mg/kg/injection, schedule: Q01DX005 (ip), vehicle: Klucel (hydroxypropylcellulose) (HPC)) was 104 % of control; the T/C (dose: 6.25 mg/kg/injection, schedule: Q01DX005 (ip), vehicle: Klucel (hydroxypropylcellulose) (HPC)) was 100 % of control; the T/C under setting [4] is 104 % of control; the T/C under setting [5] was 111 % of control.
In the case of `COc1ccc(CCNC(=O)Cc2ccc3cc(OC)c(OC)cc3c2)cc1OC`, the T/C runs as follows: under setting [6], 120 % of control; under setting [7], 100 % of control; under setting [8], 90 % of control.
Consider `CC(=O)C1=CC[C@H]2[C@@H]3C=CC4=CC(=O)CC[C@]4(C)[C@H]3C[C@@H](O)[C@]12C`, for which the T/C by setting is: under setting [4], 99 % of control; (dose: 25.0 mg/kg/injection, schedule: Q01DX005 (ip), vehicle: Klucel (hydroxypropylcellulose) (HPC)) 96 % of control; under setting [5], 107 % of control; under setting [9], 99 % of control; under setting [10], 106 % of control.
Consider `COc1cc(CC#N)c(S(=O)O)cc1OC`, for which the T/C reads like this: under setting [6], 116 % of control; under setting [7], 109 % of control; under setting [8], 114 % of control.
Regarding `O=C(Nc1c(Cl)cccc1Cl)Oc1c(Br)cc(Br)cc1Br`, the T/C (dose: 60.0 mg/kg/injection, schedule: Q01DX005 (ip), vehicle: Klucel (hydroxypropylcellulose) (HPC)) was 108 % of control; the T/C (dose: 120.0 mg/kg/injection, schedule: Q01DX005 (ip), vehicle: Klucel (hydroxypropylcellulose) (HPC)) was 101 % of control; the T/C (dose: 240.0 mg/kg/injection, schedule: Q01DX005 (ip), vehicle: Klucel (hydroxypropylcellulose) (HPC)) was 102 % of control.
Regarding `CC1=CC(=O)[C@@H](O)[C@]2(C)[C@H]3[C@@H](O)[C@H](O)[C@@]4(C)OC[C@@]35[C@@H](C[C@@H]12)OC(=O)C[C@]54O`, the T/C is 115 % of control (dose: 1.0 mg/kg/injection, schedule: Q01DX009 (ip), vehicle: saline) and 153 % of control (dose: 8.0 mg/kg/injection, schedule: Q01DX009 (ip), vehicle: saline).
Regarding `CC(C)(C)OC(=O)NC(CC(=O)OCc1ccccc1)C(=O)ON1C(=O)CCC1=O` (stereo unspecified), the T/C runs as follows: under setting [5], 106 % of control; under setting [9], 106 % of control; under setting [10], 97 % of control.
Consider `COC(=O)c1cc(-c2ccccc2)[nH]c(=O)c1C#N`, for which the T/C was 100 % of control (dose: 60.0 mg/kg/injection, schedule: Q01DX005 (ip), vehicle: saline) and 100 % of control (dose: 120.0 mg/kg/injection, schedule: Q01DX005 (ip), vehicle: saline).
For the compound `c1csc(-c2n[se]c(-c3cccs3)n2)c1`, the T/C by setting is: (dose: 12.5 mg/kg/injection, schedule: Q04DX002 (ip), vehicle: saline with Tween-80) 99 % of control; (dose: 25.0 mg/kg/injection, schedule: Q04DX002 (ip), vehicle: saline with Tween-80) 100 % of control.
Turning to `C[C@]12CC[C@H](O)C[C@@]1(O)CC[C@@H]1[C@@H]2CC[C@]2(C)[C@@H](c3ccc(=O)oc3)C[C@H]3O[C@]132`, the T/C (dose: 1.25 mg/kg/injection, schedule: Q01DX005 (ip), vehicle: saline + alcohol) was 107 % of control; the T/C (dose: 2.5 mg/kg/injection, schedule: Q01DX005 (ip), vehicle: saline + alcohol) was 104 % of control; the T/C (dose: 5.0 mg/kg/injection, schedule: Q01DX005 (ip), vehicle: saline + alcohol) is 116 % of control; the T/C (dose: 10.0 mg/kg/injection, schedule: Q01DX005 (ip), vehicle: saline + alcohol) is 94 % of control.
Regarding `Clc1cccc(Cl)c1C(Cl)Cl`, the T/C runs as follows: (dose: 100.0 mg/kg/injection, schedule: Q04DX003 (ip), vehicle: saline with Tween-80) 95 % of control; (dose: 200.0 mg/kg/injection, schedule: Q04DX003 (ip), vehicle: saline with Tween-80) 109 % of control; (dose: 400.0 mg/kg/injection, schedule: Q04DX003 (ip), vehicle: saline with Tween-80) 100 % of control.
Consider `C(=N\Nc1nc2ccccc2s1)/c1cccs1`, for which the T/C (dose: 50.0 mg/kg/injection, schedule: Q01DX009 (ip), vehicle: saline) was 100 % of control; the T/C (dose: 100.0 mg/kg/injection, schedule: Q01DX009 (ip), vehicle: saline) was 87 % of control; the T/C (dose: 200.0 mg/kg/injection, schedule: Q01DX009 (ip), vehicle: saline) was 106 % of control.
Take `CCCCCCC(=O)/C=c1\c(CC(=O)CCCCCC)nc2nnc(N)n12`: the T/C by setting is: (dose: 60.0 mg/kg/injection, schedule: Q01DX005 (ip), vehicle: saline with Tween-80) 96 % of control; (dose: 120.0 mg/kg/injection, schedule: Q01DX005 (ip), vehicle: saline with Tween-80) 100 % of control; (dose: 240.0 mg/kg/injection, schedule: Q01DX005 (ip), vehicle: saline with Tween-80) 88 % of control.
As to `O=C(c1ccc(Cl)cc1)c1cnc2nc(-c3ccccc3)c(-c3ccccc3)nn12`, the T/C reads like this: (dose: 6.25 mg/kg/injection, schedule: Q01DX005 (ip), vehicle: saline with Tween-80) 97 % of control; (dose: 12.5 mg/kg/injection, schedule: Q01DX005 (ip), vehicle: saline with Tween-80) 98 % of control; (dose: 25.0 mg/kg/injection, schedule: Q01DX005 (ip), vehicle: saline with Tween-80) 97 % of control; under setting [1], 103 % of control; under setting [2], 113 % of control; under setting [3], 115 % of control.
Turning to `CC(C)C1OC(=O)/C=C/C=C/C=C/C=C/C=C/CC(O)C(C)C(O)CC(O)CC(O)CC(O)CC(O)CC(O)CC(O)/C=C/C1C` (stereo unspecified), the T/C is 100 % of control (dose: 1.56 mg/kg/injection, schedule: Q01DX009 (ip), vehicle: saline); 96 % of control (dose: 3.12 mg/kg/injection, schedule: Q01DX009 (ip), vehicle: saline); 102 % of control and 92 % of control (dose: 6.25 mg/kg/injection, schedule: Q01DX009 (ip), vehicle: saline).

The values above are taken from PubChem BioAssay AID330 (DTP/NCI, 2004).
